Results: ChEMBL document CHEMBL1671859, “bla(IMP-4) in different genetic contexts in Enterobacteriaceae isolates from Australia” (2008)

Tests used:
Type in all cases: functional
Klebsiella pneumoniae [1] = assay: Antibacterial activity against Klebsiella pneumoniae isolate Kp1239 harboring IncL/M plasmid and blaIMP-4-qacG2-aacA4-catB3 array by Etest method in presence of clavulanic acid
Klebsiella pneumoniae [2] = assay: Antibacterial activity against Klebsiella pneumoniae isolate Kp1945 harboring IncL/M plasmid, blaIMP-4-qacG2-aacA4-catB3 and dfrA12-orfF-aadA2 arrays by Etest method in presence of clavulanic acid
Enterobacter cloacae [3] = assay: Antibacterial activity against Enterobacter cloacae isolate El3518 harboring IncL/M plasmid and blaIMP-4-qacG2-aacA4-catB3 array by Etest method in presence of clavulanic acid
Citrobacter amalonaticus = assay: Antibacterial activity against Citrobacter amalonaticus isolate Ca3927 harboring IncL/M plasmid and blaIMP-4-qacG2-aacA4-catB3 array by Etest method in presence of clavulanic acid
Morganella morganii = assay: Antibacterial activity against Morganella morganii isolate Mm38009 harboring IncL/M plasmid and blaIMP-4-qacG2-aacA4-catB3 array by Etest method in presence of clavulanic acid
Klebsiella pneumoniae [4] = assay: Antibacterial activity against Klebsiella pneumoniae isolate Kp38045 harboring IncL/M plasmid and blaIMP-4-qacG2-aacA4-catB3 array by Etest method in presence of clavulanic acid
Klebsiella pneumoniae [5] = assay: Antibacterial activity against Klebsiella pneumoniae isolate Kp211 harboring IncA/C plasmid and blaIMP-4-qacG2-aacA4-catB3 array by Etest method in presence of clavulanic acid
Enterobacter cloacae [6] = assay: Antibacterial activity against Enterobacter cloacae isolate El216 harboring IncA/C plasmid and blaIMP-4-qacG2-aacA4-catB3 array by Etest method in presence of clavulanic acid
Citrobacter youngae = assay: Antibacterial activity against Citrobacter youngae isolate CyB38 harboring blaIMP-4-qacG2-aacA4-catB3 array by Etest method in presence of clavulanic acid
Klebsiella pneumoniae [7] = assay: Antibacterial activity against Klebsiella pneumoniae Kp1239 transconjugant harboring IncL/M plasmid and blaIMP-4-qacG2-aacA4-catB3 array by Etest method in presence of clavulanic acid
Klebsiella pneumoniae [8] = assay: Antibacterial activity against Klebsiella pneumoniae Kp7564 transconjugant harboring IncL/M plasmid and blaIMP-4-qacG2-aacA4-catB3 array by Etest method in presence of clavulanic acid
Klebsiella pneumoniae [9] = assay: Antibacterial activity against Klebsiella pneumoniae Kp38045 transconjugant harboring IncL/M plasmid and blaIMP-4-qacG2-aacA4-catB3 array by Etest method in presence of clavulanic acid
Enterobacter cloacae [10] = assay: Antibacterial activity against Enterobacter cloacae El3799 transconjugant harboring IncL/M plasmid and blaIMP-4-qacG2-aacA4-catB3 array by Etest method in presence of clavulanic acid
Klebsiella pneumoniae [11] = assay: Antibacterial activity against Klebsiella pneumoniae Kp149 transconjugant harboring IncA/C plasmid and blaIMP-4-qacG2-aacA4-catB3 array by Etest method in presence of clavulanic acid
Escherichia coli = assay: Antibacterial activity against Escherichia coli Ec221 transconjugant harboring IncA/C plasmid and blaIMP-4-qacG2-aacA4-catB3 array by Etest method in presence of clavulanic acid

Measured: MIC

CC1(C)S[C@@H]2[C@H](NC(=O)[C@H](N)c3ccc(O)cc3)C(=O)N2[C@H]1C(=O)O [AMOXICILLIN]
> 16 µg/mL: all assays above
